Data: patent publication US7384636B2, “Polypeptide” (Kabushiki Kaisha Hayashibara Seibutsu Kagaku Kenkyujo, priority 2003, dated 2008)

Assays:
Format in all cases: in vivo
[1] = test system: OMP; experiment: Titer against OMP, BALB/c mice immunized intranasally (Experiment 8); details: intranasal
Protocol: (§1) All the mice were bled after one week.
(§2) As a negative control, DUP was prepared.

[2] = test system: the immunized peptide; experiment: Titer against the immunized peptide, BALB/c mice immunized intranasally (Experiment 8); details: intranasal
Protocol: as §1, §2

[3] = test system: the immunized peptide; experiment: Titer against the immunized peptide, B10 mice immunized intranasally (Experiment 7); details: intranasal, with or without CT
Protocol: as §1, §2

[4] = test system: OMP; experiment: Titer against OMP, B10 mice immunized intranasally (Experiment 7); details: intranasal, with or without CT
Protocol: as §1, §2

[5] = test system: the immunized polypeptide; experiment: Titer against the immunized peptide, BALB/c mice immunized intraperitoneally (Experiment 5); details: intraperitoneal
From the text: as §1

[6] = test system: OMP; experiment: Titer against OMP, BALB/c mice immunized intraperitoneally (Experiment 5); details: intraperitoneal
From the text: as §1

Row | Substance | Titer against the immunized peptide [2] | Titer against the immunized peptide [3] | Titer against OMP [4] | other results
1 | OMP-KK-OVAp: SEQ ID NO:40, control, OMP linked by KK to OVA peptide fragment (LAVYWELLAKYLLDRVQKVAKKISQAVHAAHAEINE; OMP-KK-OVAp) | 1,589 |  |  | Titer against OMP [1]: 108
2 | OMP-KK-RGD-UP: SEQ ID NO:34, RGD at N-terminal side of UP (LAVYWELLAKYLLDRVQKVAKKRGDTYEAALKQYEADL; OMP-KK-RGD-UP) |  | 723 | 16 | 
3 | OMP-KK-UP-RGD: SEQ ID NO:35, RGD at C-terminal side of UP (LAVYWELLAKYLLDRVQKVAKKTYEAALKQYEADLRGD; RGD-KK-UP-RGD) |  | 9,483 | 16 | 
4 | OMP-KK-UP: SEQ ID NO:20, KK inserted between OMP and UP (LAVYWELLAKYLLDRVQKVAKKTYEAALKQYEADL; OMP-KK-UP) |  | 128 | 32 | Titer against the immunized peptide [5]: 782,685; Titer against OMP [6]: 1,731
5 | OMP-RGD-KK-UP: SEQ ID NO:33, RGD at C-terminal side of OMP (LAVYWELLAKYLLDRVQKVARGDKKTYEAALKQYEADL; OMP-RGD-KK-UP) |  | 24,370 | 16 | 
6 | RGD-OMP-KK-UP: SEQ ID NO:32, RGD at N-terminal side of OMP in OMP-KK-UP (RGDLAVYWELLAKYLLDRVQKVAKKTYEAALKQYEADL; RGD-OMP-KK-UP) |  | 11,514 | 32 | 
7 | T1-KK-UP: SEQ ID NO:41, control, T1 peptide of HIV IIIB gp120 linked by KK to UP (KQIINMWQAVGKAMYAKKTYEAALKQYEADL; T1-KK-UP) | 160 |  |  | 
8 | T1-RGD-KK-UP: SEQ ID NO:39, T1 T cell epitope, RGD, KK linker, UP (KQIINMWQAVGKAMYARGDKKTYEAALKQYEADL; T1-RGD-KK-UP) | 1,707 |  |  | 
9 | UP-KK-OMP: SEQ ID NO:21, KK inserted between UP and OMP (TYEAALKQYEADLKKLAVYWELLAKYLLDRVQKVA; UP-KK-OMP) |  |  |  | Titer against the immunized peptide [5]: 29,921; Titer against OMP [6]: 1,211
